Source: patent US20240108740A1, “THERAPEUTIC COMPOSITIONS INCLUDING SPN10 AND USES THEREOF” (Stealth BioTherapeutics Inc., priority 2022, published 2024)
Residues, ends and D or L forms follow the SMILES beside them.

Key:
[1] = Example 17: linoleic acid peroxidation induced by ABAP; type: biochemical
Protocol: Linoleic acid peroxidation will be induced using the water-soluble initiator 2,2′-azobis(2-amidinopropane) (ABAP), and lipid peroxidation will be detected by the formation of conjugated dienes, monitored spectrophotometrically at 236 nm (E. Longoni, W. A. Pryor, P. Marchiafava, Biochem. Biophys. Res. Commun. 233, 778-780 (1997)).
5 mL of 0.5 M ABAP and varying concentrations of peptide conjugates; aromatic-cationic peptides (an equivalent molar dose of aromatic-cationic peptide based on the concentration of the aromatic-cationic peptide administered in the peptide conjugate treatment group); SPN10(s) (an equivalent molar dose of SPN10 based on the concentration of SPN10 administered in the peptide conjugate treatment group); or SPN10(s) in combination with aromatic-cationic peptides (e.g., an equivalent molar dose of SPN10 based on the concentration of SPN10 administered in the peptide conjugate treatment group and an equivalent molar dose of aromatic-cationic peptide based on the concentration of aromatic-cationic peptide administered in the peptide conjugate treatment group) will be incubated in 2.4 mL linoleic acid suspension until autoxidation rate becomes constant.

N2A cells = experiment: Example 24: lipid peroxidation (4-HNE Michael adducts); type: cell-based; conditions: t-BHP 1 mM, 3 hours
Protocol: Lipid peroxidation will be evaluated by measuring 4-HNE Michael adducts. 4-HNE is one of the major products of the peroxidation of membrane polyunsaturated fatty acids. N2A cells will be seeded on a glass dish 1 day before t-BHP treatment (1 mM, 3 hours, 37° C., 5% CO2) alone or in the presence of peptide conjugates (10^−8 to 10^−10 M), aromatic-cationic peptides (an equivalent molar dose of aromatic-cationic peptide based on the concentration of the aromatic-cationic peptide administered in the peptide conjugate treatment group); SPN10(s) (an equivalent molar dose of SPN10 based on the concentration of SPN10 administered in the peptide conjugate treatment group); or SPN10(s) in combination with aromatic-cationic peptides (e.g., an equivalent molar dose of SPN10 based on the concentration of SPN10 administered in the peptide conjugate treatment group and an equivalent molar dose of aromatic-cationic peptide based on the concentration of aromatic-cationic peptide administered in the peptide conjugate treatment group). Cells will be washed twice with PBS, fixed 30 minutes with 4% paraformaldehyde in PBS at RT, and washed 3 additional times with PBS. […] Cells will be mounted in Vectashield and imaged using a Zeiss fluorescence microscope using an excitation wavelength of 460±20 nm and a longpass filter of 505 nm for emission.

CD1 mice = experiment: Example 52: ATP synthesis following a burn injury (^31P NMR, EPR); type: in vivo, mouse
Protocol: Material and Methods. Male 6-week-old CD1 mice weighing 20-25 g will be anesthetized by intraperitoneal (i.p.) injection of 40 mg/kg pentobarbital sodium. The left hind limb of all mice in all groups will be shaved. Burn subjects will be subjected to a nonlethal scald injury of 3-5% total body surface area (TBSA) by immersing the left hind limb in 90° C. water for 3 seconds.
NMR spectroscopy is described in detail in Padfield, et al., Proc. Natl. Acad. Sci., 102:5368-5373 (2005). Briefly, mice will be randomized into 1) burn+control vehicle, 2) burn+peptide conjugate, 3) non-burn+control vehicle, 4) non-burn+peptide conjugate, 5) burn+aromatic-cationic peptides, 6) non-burn+aromatic-cationic peptides, 7) burn+SPN10, 8) non-burn+SPN10, 9) burn+SPN10+aromatic-cationic peptides, and 10) non-burn+SPN10+aromatic-cationic peptides groups. […] T1 relaxation times of Pi and phosphocreatine (PCr) will be measured using an inversion recovery pulse sequence in the presence of γ-ATP saturation. […]

## N=C(N)NCCC[C@H](NC(=O)[C@@H](N)Cc1c[nH]c2ccccc12)C(=O)N[C@@H](Cc1c[nH]c2ccccc12)C(=O)N[C@@H](CCCCN)C(N)=O [SPN10, H-L-Trp-L-Arg-L-Trp-L-Lys-NH2] (H-WRWK-NH2)
[1]
  peroxidation of linoleic acid: dose-dependently inhibit the peroxidation of linoleic acid
N2A cells
  lipid peroxidation in cells treated with t-BHP: inhibit lipid peroxidation
CD1 mice; compared to burn controls
  ATP synthesis rate in burned mice: significant increase in the ATP synthesis rate
CD1 mice; non-burn
  ATP synthesis rate in control healthy mice: increase ATP synthesis rate substantially
